Laboratory results reported in patent US20080134931A1, “Plasterboards Provided With Antimicrobial Effect” (priority 2005, published 2008).
Like-named read-outs stand apart in the source and are kept apart here.

What was measured:
Aspergillus flavus = assay: Minimum inhibitory concentration and synergism (Kull synergy index) of OPP/TBZ; assay type: cell-based; details: read-out: Amount of pure active substances which suppress growth (QA, QB; minimum inhibitory concentration)
Source text: For improving the overall performance of an antimicrobial treatment, the use of active substance mixtures is customary for compensating, for example, for gaps in the activity of one component or for optimizing the costs of preservation.
The synergism found for the mixture according to the invention can be determined via the following mathematical formula (cf. F. C. Kull, P. C. Elisman, H. D. Sylwestrowicz and P. K. Mayer, Appl. Microbiol. 9, 538 (1961):
Qa=amount of component A in the active substance mixture which achieves the desired effect, i.e. no microbial growth,
QA=amount of component A which, when used alone, suppresses the growth of the micro-organisms,
Qb=amount of component B in the active substance mixture which suppresses the growth of the micro-organisms,
QB=amount of component B which, when used alone, suppresses the growth of the micro-organisms.
Synergism of o-phenylphenol (OPP)/thiabendazole (TBZ)
Using the test micro-organism, Aspergillus flavus, the minimum inhibitory concentration of the active substance combinations listed in Table 2 were investigated.

[1] = system: mixture of moulds: Penicillium glaucum, Chaetomium globosum, Aspergillus niger, Aureobasidium pullulans; assay: Microbiological resistance of plasterboard treated with OPP in the gypsum core after inoculation with a fungal mixture, humid environment
Source text: For checking the effectiveness of a plasterboard treated with OPP in the gypsum core, the resistance was investigated in the laboratory after inoculation with a fungal mixture. For this purpose, sandwich-type plasterboard samples having the dimensions 14×5 cm are transferred to a 1 litre powder bottle and suspended by the bottle cap. At the start of the experiment, the test specimens thus prepared are immersed once in a mixture of the following moulds to simulate a strong fungal attack:
The mould species are material pests well known to the person skilled in the art and are therefore suitable for a qualifying conclusion about the degree of antimicrobial protection of a product treated with an OPP or the sodium or potassium salt thereof and optionally further active components. The sample boards are stored at room temperature over a period of up to 8 weeks, a water vapour-saturated atmosphere being continuously ensured by maintaining the initial amount of water at the bottom of the vessel (direct contact between plasterboard and water is not permitted). The assessment of the test specimens is effected at certain times and is carried out according to the following rating scheme:
0=no growth on the surface
1=slight growth (<10% of the surface infested)
2=moderate growth (<50% of the surface infested)
3=strong growth on the surface
Microbiological resistance of a plasterboard contaminated once in a humid environment

c1ccc2[nH]c(-c3cscn3)nc2c1 [TBZ, thiabendazole, reference compound]
MIC (Aspergillus flavus; substance used alone): 500 µg/mL

Oc1ccccc1-c1ccccc1 [OPP, o-phenylphenol]
Rating (mould growth on plasterboard surface) ([1]; 300 ppm OPP in the gypsum core, 1 week, water vapour-saturated atmosphere, room temperature): 0/0 | Rating (mould growth on plasterboard surface) ([1]; 300 ppm OPP in the gypsum core, 3 weeks): 0/0 | Rating (mould growth on plasterboard surface) ([1]; 300 ppm OPP in the gypsum core, 4 weeks): 0/0 | Rating (mould growth on plasterboard surface) ([1]; 300 ppm OPP in the gypsum core, 8 weeks): 0/0 | Rating (mould growth on plasterboard surface) ([1]; 500 ppm OPP in the gypsum core, 1 week): 0/0 | Rating (mould growth on plasterboard surface) ([1]; 500 ppm OPP in the gypsum core, 3 weeks): 0/0 | Rating (mould growth on plasterboard surface) ([1]; 500 ppm OPP in the gypsum core, 4 weeks): 0/0 | Rating (mould growth on plasterboard surface) ([1]; 500 ppm OPP in the gypsum core, 8 weeks): 0/0 | Rating (mould growth on plasterboard surface) ([1]; 750 ppm OPP in the gypsum core, 1 week): 0/0 | Rating (mould growth on plasterboard surface) ([1]; 750 ppm OPP in the gypsum core, 3 weeks): 0/0 | Rating (mould growth on plasterboard surface) ([1]; 750 ppm OPP in the gypsum core, 4 weeks): 0/0 | Rating (mould growth on plasterboard surface) ([1]; 750 ppm OPP in the gypsum core, 8 weeks): 0/0 | Concentration of use from which good effectiveness was found ([1]; based on the weight of the gypsum core): ≥ 300 ppm | MIC (Aspergillus flavus): 100 µg/mL
